Measurements: ChEMBL document CHEMBL5316343, “Design, Synthesis, and Biological Evaluation of a Potent Dual EZH2-BRD4 Inhibitor for the Treatment of Some Solid Tumors” (J Med Chem, 2023)
Activity calls are given as the source filed them. The rule behind the calls is not given here.

What was measured:
[1] = molecular target: T1, Histone-lysine N-methyltransferase EZH2 (Homo sapiens, UniProt Q15910); experiment: Inhibition of EZH2 (unknown origin) by radiometric assay
Target sequence in this assay (Q15910 whole entry): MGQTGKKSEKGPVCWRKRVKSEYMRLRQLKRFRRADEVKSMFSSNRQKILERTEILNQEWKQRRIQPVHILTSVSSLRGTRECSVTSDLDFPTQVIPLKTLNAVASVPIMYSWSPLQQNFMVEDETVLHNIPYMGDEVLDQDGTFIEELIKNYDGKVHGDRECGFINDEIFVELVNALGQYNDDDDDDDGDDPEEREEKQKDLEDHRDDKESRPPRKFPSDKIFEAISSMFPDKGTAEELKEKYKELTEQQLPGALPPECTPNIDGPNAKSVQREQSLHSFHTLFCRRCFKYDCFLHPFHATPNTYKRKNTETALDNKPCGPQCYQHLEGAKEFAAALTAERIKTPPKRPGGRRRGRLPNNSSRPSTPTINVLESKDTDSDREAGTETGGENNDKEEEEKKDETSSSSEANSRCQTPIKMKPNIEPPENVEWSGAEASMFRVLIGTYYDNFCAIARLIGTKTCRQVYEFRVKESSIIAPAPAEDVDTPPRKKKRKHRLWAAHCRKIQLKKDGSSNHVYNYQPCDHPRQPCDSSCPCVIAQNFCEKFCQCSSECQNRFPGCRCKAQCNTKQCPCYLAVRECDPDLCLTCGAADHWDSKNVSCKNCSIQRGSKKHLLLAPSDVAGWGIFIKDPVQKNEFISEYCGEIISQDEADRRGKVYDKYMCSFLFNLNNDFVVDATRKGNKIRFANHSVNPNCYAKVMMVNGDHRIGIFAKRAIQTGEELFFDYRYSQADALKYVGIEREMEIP

[2] = molecular target: Bromodomain-containing protein 4 (Homo sapiens, UniProt O60885); experiment: Inhibition of BRD4 (unknown origin) by HTRF analysis
[3] = molecular target: Bromodomain testis-specific protein (Homo sapiens, UniProt Q58F21); experiment: Inhibition of BRDT-BD1 (unknown origin) by HTRF analysis
[4] = test system: T-24; experiment: Antiproliferative activity against human T24 cells assessed as inhibition of cell proliferation incubated for 6 days by CCK8 assay; format: functional, cell-based; details: time 6.0 day
[5] = test system: MDA-MB-231; experiment: Antiproliferative activity against human MDA-MB-231 cells assessed as inhibition of cell proliferation incubated for 6 days by CCK8 assay; format: functional, cell-based; details: time 6.0 day
[6] = test system: PLC-PRF-5; experiment: Antiproliferative activity against human PLC-PRF-5 cells assessed as inhibition of cell proliferation incubated for 6 days by CCK8 assay; format: functional, cell-based; details: time 6.0 day
[7] = molecular target: T1, Histone-lysine N-methyltransferase EZH2; experiment: Inhibition of EZH2 in human BX-PC-3 cells assessed as decrease in H3K27me3 level at 5 uM by fluorescence based analysis; format: cell-based; details: BXPC-3
Target sequence in this assay (Q15910 whole entry, looked up): as the sequence (Q15910 whole entry) above

[8] = molecular target: T1, Histone-lysine N-methyltransferase EZH2; experiment: Inhibition of EZH2 in human MDA-MB-231 cells assessed as increase in H3K27ac level at 5 uM by fluorescence based analysis; format: cell-based
Target sequence in this assay (Q15910 whole entry, looked up): as the sequence (Q15910 whole entry) above

[9] = molecular target: T1, Histone-lysine N-methyltransferase EZH2; experiment: Inhibition of EZH2 in human BXPC-3 cells assessed as increase in H3K27ac level at 5 uM by fluorescence based analysis; format: cell-based
Target sequence in this assay (Q15910 whole entry, looked up): as the sequence (Q15910 whole entry) above

[10] = test system: MDA-MB-231; experiment: Induction of cell cycle arrest in human MDA-MB-231 cells assessed as accumulation of cells at G0/G1 phase at 1 to 5 uM incubated for 48 hrs by flow cytometric analysis; format: functional, cell-based; details: dose 1-5 µM
[11] = test system: MDA-MB-231; experiment: Induction of apoptosis in human MDA-MB-231 cells assessed as early apoptotic cells at 5 uM incubated for 48 hrs by Annexin V-FITC/PI staining based flow cytometric analysis (reference value: 0.69%); format: functional
[12] = test system: MDA-MB-231; experiment: Induction of apoptosis in human MDA-MB-231 cells assessed as late apoptotic cells at 5 uM incubated for 48 hrs by Annexin V-FITC/PI staining based flow cytometric analysis (reference value: 1.06%); format: functional
[13] = test system: MDA-MB-231; experiment: Induction of apoptosis in human MDA-MB-231 cells assessed as necrotic cells at 5 uM incubated for 48 hrs by Annexin V-FITC/PI staining based flow cytometric analysis (reference value: 0.63%); format: functional
[14] = test system: MDA-MB-231; experiment: Induction of apoptosis in human MDA-MB-231 cells assessed as early apoptotic cells at 1 uM incubated for 48 hrs by Annexin V-FITC/PI staining based flow cytometric analysis (reference value: 0.69%); format: functional
[15] = test system: MDA-MB-231; experiment: Induction of apoptosis in human MDA-MB-231 cells assessed as early apoptotic cells at 2.5 uM incubated for 48 hrs by Annexin V-FITC/PI staining based flow cytometric analysis (reference value: 0.69%); format: functional
[16] = test system: MDA-MB-231; experiment: Induction of apoptosis in human MDA-MB-231 cells assessed as late apoptotic cells at 2.5 uM incubated for 48 hrs by Annexin V-FITC/PI staining based flow cytometric analysis (reference value: 1.06%); format: functional
[17] = test system: MDA-MB-231; experiment: Induction of apoptosis in human MDA-MB-231 cells assessed as necrotic cells at 2.5 uM incubated for 48 hrs by Annexin V-FITC/PI staining based flow cytometric analysis (reference value: 0.63%); format: functional
[18] = test system: BXPC-3; experiment: Induction of apoptosis in human BXPC-3 cells assessed as viable cells at 5 uM incubated for 48 hrs by Annexin V-FITC/PI staining based flow cytometric analysis (reference value: 90.70%); format: functional; details: read-out: Activity
[19] = test system: BXPC-3; experiment: Induction of apoptosis in human BXPC-3 cells assessed as late apoptotic cells at 5 uM incubated for 48 hrs by Annexin V-FITC/PI staining based flow cytometric analysis (reference value: 4.38 %); format: functional
[20] = test system: BXPC-3; experiment: Induction of apoptosis in human BXPC-3 cells assessed as viable cells at 1 uM incubated for 48 hrs by Annexin V-FITC/PI staining based flow cytometric analysis (reference value: 90.70%); format: functional; details: read-out: Activity
[21] = test system: BXPC-3; experiment: Induction of apoptosis in human BXPC-3 cells assessed as early apoptotic cells at 1 uM incubated for 48 hrs by Annexin V-FITC/PI staining based flow cytometric analysis (reference value: 3.28 %); format: functional
[22] = test system: BXPC-3; experiment: Induction of apoptosis in human BXPC-3 cells assessed as necrotic cells at 1 uM incubated for 48 hrs by Annexin V-FITC/PI staining based flow cytometric analysis (reference value: 1.65 %); format: functional
[23] = test system: BXPC-3; experiment: Induction of apoptosis in human BXPC-3 cells assessed as early apoptotic cells at 2.5 uM incubated for 48 hrs by Annexin V-FITC/PI staining based flow cytometric analysis (reference value: 3.28 %); format: functional
[24] = test system: BXPC-3; experiment: Induction of apoptosis in human BXPC-3 cells assessed as late apoptotic cells at 2.5 uM incubated for 48 hrs by Annexin V-FITC/PI staining based flow cytometric analysis (reference value: 4.38 %); format: functional
[25] = test system: BXPC-3; experiment: Induction of apoptosis in human BXPC-3 cells assessed as necrotic cells at 2.5 uM incubated for 48 hrs by Annexin V-FITC/PI staining based flow cytometric analysis (reference value: 1.65 %); format: functional
[26] = test system: MDA-MB-231; experiment: Inhibition of cell proliferation in human MDA-MB-231 cells assessed as decrease in c-Myc protein level at 5 uM incubated for 48 hrs by IHC analysis; format: functional, cell-based
[27] = test system: BXPC-3; experiment: Inhibition of cell proliferation in human BXPC-3 cells assessed as decrease in c-Myc mRNA level at 5 uM incubated for 48 hrs by qRT-PCR analysis; format: functional, cell-based
[28] = MRT(0 to t) in ICR mouse at 60 mg/kg, ip measured upto 24 hrs by LC-MS/MS analysis; format: ADME, organism-based; details: in vivo
[29] = MRT(0 to infinity) in ICR mouse at 60 mg/kg, ip measured upto 24 hrs by LC-MS/MS analysis; format: ADME, organism-based; details: in vivo
[30] = test system: BXPC-3; experiment: Antitumor activity against human BXPC-3 cells xenografted in Balb/c nude mouse assessed as reduction in tumor growth at 60 mg/kg, ip administered daily for 30 days; format: functional, organism-based; details: time 30.0 day
[31] = test system: BXPC-3; experiment: Antitumor activity against human BXPC-3 cells xenografted in Balb/c nude mouse assessed as reduction in tumor growth at 30 mg/kg, ip administered daily for 30 days; format: functional, organism-based; details: time 30.0 day

For CCC(C)n1ccc2c(C(=O)NCc3c(C)cc(C)[nH]c3=O)cc(-c3cn(C)c(=O)c4[nH]ccc34)cc21 (stereo unspecified), the IC50 [1] was 2.3 nM, the IC50 [2] was 147 nM and the IC50 [3] was 35 nM. For the same molecule, the Activity [4] was “Active”, the Activity [5] was “Active” and the Activity [6] was “Active”. For the same molecule, the inhibition [7] was “Active”, the inhibition [8] was “Active” and the inhibition [9] was “Active”. The Activity [10] was “Active”, the Activity [11] was 13.19% and the Activity [12] was 3.82%. It also gave an Activity [13] of 1.91%, an Activity [14] of 2.87% and an Activity [15] of 8.53%. It also gave an Activity [16] of 2.29%, an Activity [17] of 1.38% and a viability at 5 µM [18] of 62.1%. It also gave an Activity [19] of 23.83%, a viability at 1 µM [20] of 82.6% and an Activity [21] of 6.84%. For the same molecule, the Activity [22] was 2.94%, the Activity [23] was 9.2% and the Activity [24] was 16.95%. For the same molecule, the Activity [25] was 2.86%, the inhibition [26] was “Active” and the inhibition [27] was “Active”. The MRT last at 24 h [28] was 2.55 h, the MRT inf [29] was 6.94 h and the Activity [30] was “Active”. For the same molecule, the Activity [31] was “inactive”.
